pIC50: −log10 of the molar value.
Tests used:
[1] = tested on: ABL1 (human), P00519 [E255K]; test: KINOMEscan competition binding; conditions: compound 10.0 µM
[2] = biological target: AKT3 (human) (UniProt Q9Y243); test: KINOMEscan competition binding; conditions: compound 10.0 µM
[3] = biological target: BLK (human) (UniProt P51451); test: KINOMEscan competition binding; conditions: compound 10.0 µM
[4] = biological target: CLK1 (human) (UniProt P49759); test: KINOMEscan competition binding; conditions: compound 10.0 µM
[5] = biological target: CLK4 (human) (UniProt Q9HAZ1); test: KINOMEscan competition binding; conditions: compound 10.0 µM
[6] = biological target: CSF1R (human) (UniProt P07333); test: KINOMEscan competition binding; conditions: compound 10.0 µM
[7] = biological target: CSNK1E (human) (UniProt P49674); test: KINOMEscan competition binding; conditions: compound 10.0 µM
[8] = biological target: DAPK2 (human) (UniProt Q9UIK4); test: KINOMEscan competition binding; conditions: compound 10.0 µM
Sequence of DAPK2 (human) (Q9UIK4 whole entry, looked up): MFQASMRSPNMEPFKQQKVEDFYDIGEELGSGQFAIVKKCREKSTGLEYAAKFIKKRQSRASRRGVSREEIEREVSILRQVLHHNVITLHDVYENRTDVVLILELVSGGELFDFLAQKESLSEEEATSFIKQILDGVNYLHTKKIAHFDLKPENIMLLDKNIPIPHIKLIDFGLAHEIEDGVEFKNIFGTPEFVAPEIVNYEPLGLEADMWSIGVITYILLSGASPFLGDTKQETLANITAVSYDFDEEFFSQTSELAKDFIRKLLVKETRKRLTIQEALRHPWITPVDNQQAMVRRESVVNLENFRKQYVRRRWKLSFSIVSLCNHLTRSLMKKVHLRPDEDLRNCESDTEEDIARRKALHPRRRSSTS

[9] = biological target: DYRK1B (human) (UniProt Q9Y463); test: KINOMEscan competition binding; conditions: compound 10.0 µM
[10] = tested on: EGFR (human), P00533 [P753S; 747-752 del]; test: KINOMEscan competition binding; conditions: compound 10.0 µM
[11] = biological target: FGFR1 (human) (UniProt P11362); test: KINOMEscan competition binding; conditions: compound 10.0 µM
Sequence of FGFR1 (human) (P11362 whole entry, looked up): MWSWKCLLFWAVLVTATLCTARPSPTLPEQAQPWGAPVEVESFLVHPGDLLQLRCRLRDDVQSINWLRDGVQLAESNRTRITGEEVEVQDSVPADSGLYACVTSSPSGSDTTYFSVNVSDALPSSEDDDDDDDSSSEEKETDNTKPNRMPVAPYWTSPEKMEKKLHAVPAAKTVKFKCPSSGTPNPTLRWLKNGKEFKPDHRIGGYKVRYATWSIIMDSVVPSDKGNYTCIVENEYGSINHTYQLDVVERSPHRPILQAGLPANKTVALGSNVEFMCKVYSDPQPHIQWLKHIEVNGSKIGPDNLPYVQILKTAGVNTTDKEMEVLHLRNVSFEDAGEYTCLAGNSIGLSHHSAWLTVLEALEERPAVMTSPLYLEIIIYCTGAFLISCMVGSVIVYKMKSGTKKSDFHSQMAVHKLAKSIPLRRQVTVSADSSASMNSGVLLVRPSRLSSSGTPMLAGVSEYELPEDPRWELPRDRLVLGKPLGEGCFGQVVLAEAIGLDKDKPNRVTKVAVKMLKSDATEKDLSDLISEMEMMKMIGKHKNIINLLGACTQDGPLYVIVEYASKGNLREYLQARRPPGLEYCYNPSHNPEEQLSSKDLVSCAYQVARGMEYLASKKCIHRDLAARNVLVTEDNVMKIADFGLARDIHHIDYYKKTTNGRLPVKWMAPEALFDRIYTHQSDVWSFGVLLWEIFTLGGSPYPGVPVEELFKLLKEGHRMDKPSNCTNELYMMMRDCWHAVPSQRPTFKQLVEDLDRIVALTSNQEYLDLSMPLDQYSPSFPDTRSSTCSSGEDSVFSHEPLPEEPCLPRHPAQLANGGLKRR

[12] = biological target: FGFR2 (human) (UniProt P21802); test: KINOMEscan competition binding; conditions: compound 10.0 µM
[13] = tested on: FGFR3 (human), P22607 [G697C]; test: KINOMEscan competition binding; conditions: compound 10.0 µM
[14] = biological target: HIPK1 (human) (UniProt Q86Z02); test: KINOMEscan competition binding; conditions: compound 10.0 µM
[15] = biological target: IKBKB (human) (UniProt O14920); test: KINOMEscan competition binding; conditions: compound 10.0 µM
[16] = biological target: JAK1 JH1 catalytic (human) (UniProt P23458); test: KINOMEscan competition binding; conditions: compound 10.0 µM
[17] = biological target: JAK3 JH1 catalytic (human) (UniProt P52333); test: KINOMEscan competition binding; conditions: compound 10.0 µM
[18] = biological target: MAP2K2 (human) (UniProt P36507); test: KINOMEscan competition binding; conditions: compound 10.0 µM
[19] = biological target: MAP2K6 (human) (UniProt P52564); test: KINOMEscan competition binding; conditions: compound 10.0 µM
Sequence of MAP2K6 (human) (P52564 whole entry, looked up): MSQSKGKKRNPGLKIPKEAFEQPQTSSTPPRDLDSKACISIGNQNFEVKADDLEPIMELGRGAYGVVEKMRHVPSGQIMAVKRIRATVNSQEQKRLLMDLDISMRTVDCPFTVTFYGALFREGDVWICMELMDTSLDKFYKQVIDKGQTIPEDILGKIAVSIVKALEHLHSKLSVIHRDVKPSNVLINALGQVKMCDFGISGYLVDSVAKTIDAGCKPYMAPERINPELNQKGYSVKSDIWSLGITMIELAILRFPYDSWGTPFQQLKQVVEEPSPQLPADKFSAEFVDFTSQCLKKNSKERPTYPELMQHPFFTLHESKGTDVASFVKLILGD

[20] = biological target: MAP3K3 (human) (UniProt Q99759); test: KINOMEscan competition binding; conditions: compound 10.0 µM
Sequence of MAP3K3 (human) (Q99759 whole entry, looked up): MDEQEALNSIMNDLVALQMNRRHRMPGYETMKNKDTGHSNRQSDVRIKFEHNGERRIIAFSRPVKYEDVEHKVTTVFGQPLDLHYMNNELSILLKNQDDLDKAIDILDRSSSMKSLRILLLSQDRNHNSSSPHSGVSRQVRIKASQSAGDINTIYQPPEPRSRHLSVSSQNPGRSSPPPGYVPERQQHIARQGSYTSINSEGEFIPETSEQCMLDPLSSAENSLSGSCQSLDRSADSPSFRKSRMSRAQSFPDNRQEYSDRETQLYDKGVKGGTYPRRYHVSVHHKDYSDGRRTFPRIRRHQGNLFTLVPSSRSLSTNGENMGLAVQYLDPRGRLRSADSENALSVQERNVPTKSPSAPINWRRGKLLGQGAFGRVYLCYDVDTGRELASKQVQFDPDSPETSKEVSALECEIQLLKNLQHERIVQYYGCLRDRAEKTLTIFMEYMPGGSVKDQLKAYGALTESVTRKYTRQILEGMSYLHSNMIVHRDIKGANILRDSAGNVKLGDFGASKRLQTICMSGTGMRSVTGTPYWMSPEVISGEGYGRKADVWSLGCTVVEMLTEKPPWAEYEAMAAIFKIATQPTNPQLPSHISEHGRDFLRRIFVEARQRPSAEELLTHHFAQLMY

[21] = biological target: MAPK14 (human) (UniProt Q16539); test: KINOMEscan competition binding; conditions: compound 10.0 µM
Sequence of MAPK14 (human) (Q16539 whole entry, looked up): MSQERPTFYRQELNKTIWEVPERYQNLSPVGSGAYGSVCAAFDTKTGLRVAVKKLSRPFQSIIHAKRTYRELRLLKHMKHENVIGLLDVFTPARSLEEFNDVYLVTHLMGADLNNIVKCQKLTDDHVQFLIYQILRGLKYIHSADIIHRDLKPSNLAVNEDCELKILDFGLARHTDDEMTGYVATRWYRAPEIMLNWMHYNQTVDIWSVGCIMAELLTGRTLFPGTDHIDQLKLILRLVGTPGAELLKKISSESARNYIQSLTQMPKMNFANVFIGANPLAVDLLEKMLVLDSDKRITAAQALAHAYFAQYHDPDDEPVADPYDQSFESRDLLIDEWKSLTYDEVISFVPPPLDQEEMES

[22] = biological target: MAPK3 (human) (UniProt P27361); test: KINOMEscan competition binding; conditions: compound 10.0 µM
[23] = biological target: MAPK6 (human) (UniProt Q16659); test: KINOMEscan competition binding; conditions: compound 10.0 µM
[24] = biological target: MKNK2 (human) (UniProt Q9HBH9); test: KINOMEscan competition binding; conditions: compound 10.0 µM
[25] = biological target: MYO3B (human) (UniProt Q8WXR4); test: KINOMEscan competition binding; conditions: compound 10.0 µM
[26] = biological target: NEK5 (human) (UniProt Q6P3R8); test: KINOMEscan competition binding; conditions: compound 10.0 µM
[27] = biological target: PDGFRA (human) (UniProt P16234); test: KINOMEscan competition binding; conditions: compound 10.0 µM
[28] = biological target: PDGFRB (human) (UniProt P09619); test: KINOMEscan competition binding; conditions: compound 10.0 µM
[29] = biological target: PIM1 (human) (UniProt P11309); test: KINOMEscan competition binding; conditions: compound 10.0 µM
[30] = biological target: PIP5K1A (human) (UniProt Q99755); test: KINOMEscan competition binding; conditions: compound 10.0 µM
[31] = biological target: PRKAA2 (human) (UniProt P54646); test: KINOMEscan competition binding; conditions: compound 10.0 µM
[32] = biological target: PRKCQ (human) (UniProt Q04759); test: KINOMEscan competition binding; conditions: compound 10.0 µM
[33] = biological target: RIPK1 (human) (UniProt Q13546); test: KINOMEscan competition binding; conditions: compound 10.0 µM
Sequence of RIPK1 (human) (Q13546 whole entry, looked up): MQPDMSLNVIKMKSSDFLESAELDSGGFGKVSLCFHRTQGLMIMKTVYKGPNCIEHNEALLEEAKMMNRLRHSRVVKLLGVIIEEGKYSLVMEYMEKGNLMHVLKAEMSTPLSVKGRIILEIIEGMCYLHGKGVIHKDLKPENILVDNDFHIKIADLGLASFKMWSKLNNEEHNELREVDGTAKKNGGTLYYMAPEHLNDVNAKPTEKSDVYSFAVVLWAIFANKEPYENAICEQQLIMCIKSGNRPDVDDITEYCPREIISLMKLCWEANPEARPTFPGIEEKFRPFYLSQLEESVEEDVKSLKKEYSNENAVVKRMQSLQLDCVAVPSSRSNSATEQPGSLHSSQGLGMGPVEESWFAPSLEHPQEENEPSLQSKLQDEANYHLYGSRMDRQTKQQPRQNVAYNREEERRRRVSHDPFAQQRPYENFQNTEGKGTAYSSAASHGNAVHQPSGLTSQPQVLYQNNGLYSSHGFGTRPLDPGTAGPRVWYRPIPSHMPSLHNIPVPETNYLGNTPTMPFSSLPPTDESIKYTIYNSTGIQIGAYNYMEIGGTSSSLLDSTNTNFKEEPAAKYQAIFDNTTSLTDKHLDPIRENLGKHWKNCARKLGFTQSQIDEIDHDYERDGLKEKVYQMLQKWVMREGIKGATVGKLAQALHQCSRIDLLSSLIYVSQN

[34] = biological target: STK17A (human) (UniProt Q9UEE5); test: KINOMEscan competition binding; conditions: compound 10.0 µM
[35] = biological target: STK33 (human) (UniProt Q9BYT3); test: KINOMEscan competition binding; conditions: compound 10.0 µM
[36] = biological target: STK36 (human) (UniProt Q9NRP7); test: KINOMEscan competition binding; conditions: compound 10.0 µM
[37] = biological target: TAOK1 (human) (UniProt Q7L7X3); test: KINOMEscan competition binding; conditions: compound 10.0 µM
Sequence of TAOK1 (human) (Q7L7X3 whole entry, looked up): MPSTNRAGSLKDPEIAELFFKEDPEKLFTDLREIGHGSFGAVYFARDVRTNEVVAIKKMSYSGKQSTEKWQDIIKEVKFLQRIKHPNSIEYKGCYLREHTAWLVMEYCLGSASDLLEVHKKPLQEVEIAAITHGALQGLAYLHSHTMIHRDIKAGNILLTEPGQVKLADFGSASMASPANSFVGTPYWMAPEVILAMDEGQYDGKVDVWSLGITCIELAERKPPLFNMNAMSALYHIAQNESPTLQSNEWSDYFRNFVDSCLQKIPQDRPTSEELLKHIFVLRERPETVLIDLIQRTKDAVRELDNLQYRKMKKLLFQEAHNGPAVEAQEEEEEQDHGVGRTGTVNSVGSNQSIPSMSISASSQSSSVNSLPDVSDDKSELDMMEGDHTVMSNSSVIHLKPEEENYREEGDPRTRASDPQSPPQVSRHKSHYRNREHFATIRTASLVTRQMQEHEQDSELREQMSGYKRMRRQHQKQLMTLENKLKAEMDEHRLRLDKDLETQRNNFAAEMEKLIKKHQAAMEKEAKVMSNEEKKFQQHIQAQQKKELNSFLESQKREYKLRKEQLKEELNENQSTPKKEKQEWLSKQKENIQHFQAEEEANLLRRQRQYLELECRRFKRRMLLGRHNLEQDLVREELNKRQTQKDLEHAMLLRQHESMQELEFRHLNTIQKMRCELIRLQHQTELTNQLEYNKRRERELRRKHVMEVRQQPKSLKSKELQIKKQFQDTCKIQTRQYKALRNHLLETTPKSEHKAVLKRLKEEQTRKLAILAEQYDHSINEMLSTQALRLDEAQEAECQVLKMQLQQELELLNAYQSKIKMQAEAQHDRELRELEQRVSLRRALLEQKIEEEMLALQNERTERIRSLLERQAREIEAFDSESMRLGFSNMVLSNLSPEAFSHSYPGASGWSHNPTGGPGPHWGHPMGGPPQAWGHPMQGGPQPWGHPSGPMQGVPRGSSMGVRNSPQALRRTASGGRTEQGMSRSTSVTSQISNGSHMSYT

[38] = biological target: TNNI3K (human) (UniProt Q59H18); test: KINOMEscan competition binding; conditions: compound 10.0 µM
Sequence of TNNI3K (human) (Q59H18 whole entry, looked up): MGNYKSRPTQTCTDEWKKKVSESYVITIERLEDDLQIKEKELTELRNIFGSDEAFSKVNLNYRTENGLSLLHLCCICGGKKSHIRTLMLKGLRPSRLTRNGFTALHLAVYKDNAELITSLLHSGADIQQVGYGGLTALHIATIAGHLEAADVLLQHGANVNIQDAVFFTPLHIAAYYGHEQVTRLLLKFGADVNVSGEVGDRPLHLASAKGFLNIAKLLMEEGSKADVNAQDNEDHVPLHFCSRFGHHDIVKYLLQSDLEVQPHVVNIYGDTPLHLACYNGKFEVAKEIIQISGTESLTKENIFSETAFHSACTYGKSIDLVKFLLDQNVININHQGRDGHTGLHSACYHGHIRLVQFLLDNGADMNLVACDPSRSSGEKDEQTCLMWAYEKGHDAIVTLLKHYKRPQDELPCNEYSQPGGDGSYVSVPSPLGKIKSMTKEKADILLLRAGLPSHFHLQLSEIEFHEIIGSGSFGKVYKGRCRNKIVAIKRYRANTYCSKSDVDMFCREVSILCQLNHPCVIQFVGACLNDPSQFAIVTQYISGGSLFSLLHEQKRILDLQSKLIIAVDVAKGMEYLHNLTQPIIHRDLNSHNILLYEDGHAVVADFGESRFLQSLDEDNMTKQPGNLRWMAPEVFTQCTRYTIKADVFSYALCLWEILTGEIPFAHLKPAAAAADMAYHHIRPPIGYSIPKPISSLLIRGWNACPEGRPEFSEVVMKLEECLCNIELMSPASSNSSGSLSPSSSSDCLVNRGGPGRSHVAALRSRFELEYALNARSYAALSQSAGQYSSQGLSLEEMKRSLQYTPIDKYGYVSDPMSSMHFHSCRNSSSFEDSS

[39] = biological target: TTK (human) (UniProt P33981); test: KINOMEscan competition binding; conditions: compound 10.0 µM
[40] = biological target: TYRO3 (human) (UniProt Q06418); test: KINOMEscan competition binding; conditions: compound 10.0 µM
[41] = biological target: FES (human) (UniProt P07332); test: Z-Lyte, FRET
[42] = biological target: MAP4K1 (human) (UniProt Q92918); test: KINOMEscan competition binding; conditions: compound 10.0 µM

COc1cc(N2CCC(N3CCN(C)CC3)CC2)ccc1Nc1ncc(Cl)c(Nc2ccccc2S(=O)(=O)C(C)C)n1
kinase still bound, per cent of control [1]: 19% | kinase still bound, per cent of control [2]: 40% | kinase still bound, per cent of control [3]: 0.1% | kinase still bound, per cent of control [4]: 0.4% | kinase still bound, per cent of control [5]: 1.2% | kinase still bound, per cent of control [6]: 0% | kinase still bound, per cent of control [7]: 40% | kinase still bound, per cent of control [8]: 12% | kinase still bound, per cent of control [9]: 40% | kinase still bound, per cent of control [10]: 0.95% | kinase still bound, per cent of control [11]: 0% | kinase still bound, per cent of control [12]: 0.95% | kinase still bound, per cent of control [13]: 0.25% | kinase still bound, per cent of control [14]: 40% | kinase still bound, per cent of control [15]: 40% | kinase still bound, per cent of control [16]: 4.7% | kinase still bound, per cent of control [17]: 2% | kinase still bound, per cent of control [18]: 1.8% | kinase still bound, per cent of control [19]: 40% | kinase still bound, per cent of control [20]: 2.8% | kinase still bound, per cent of control [21]: 40% | kinase still bound, per cent of control [22]: 0.1% | kinase still bound, per cent of control [23]: 40% | kinase still bound, per cent of control [24]: 1.4% | kinase still bound, per cent of control [25]: 0.6% | kinase still bound, per cent of control [26]: 40% | kinase still bound, per cent of control [27]: 0.85% | kinase still bound, per cent of control [28]: 0.25% | kinase still bound, per cent of control [29]: 40% | kinase still bound, per cent of control [30]: 1.3% | kinase still bound, per cent of control [31]: 0.15% | kinase still bound, per cent of control [32]: 13% | kinase still bound, per cent of control [33]: 18% | kinase still bound, per cent of control [34]: 5.9% | kinase still bound, per cent of control [35]: 0.1% | kinase still bound, per cent of control [36]: 5.8% | kinase still bound, per cent of control [37]: 0.1% | kinase still bound, per cent of control [38]: 15% | kinase still bound, per cent of control [39]: 0% | kinase still bound, per cent of control [40]: 24%

CCOc1cc(N2CCC(N3CCCCC3)CC2)ccc1Nc1nc(Nc2ccccc2S(=O)(=O)C(C)C)c2cn[nH]c2n1
pIC50 [41]: 4.17 | kinase still bound, per cent of control [1]: 67% | kinase still bound, per cent of control [2]: 100% | kinase still bound, per cent of control [3]: 100% | kinase still bound, per cent of control [4]: 0.4% | kinase still bound, per cent of control [5]: 5.2% | kinase still bound, per cent of control [6]: 99% | kinase still bound, per cent of control [7]: 74% | kinase still bound, per cent of control [8]: 64% | kinase still bound, per cent of control [9]: 42% | kinase still bound, per cent of control [10]: 40% | kinase still bound, per cent of control [11]: 100% | kinase still bound, per cent of control [12]: 100% | kinase still bound, per cent of control [13]: 97% | kinase still bound, per cent of control [14]: 82% | kinase still bound, per cent of control [15]: 100% | kinase still bound, per cent of control [16]: 100% | kinase still bound, per cent of control [17]: 84% | kinase still bound, per cent of control [18]: 94% | kinase still bound, per cent of control [19]: 100% | kinase still bound, per cent of control [20]: 69% | kinase still bound, per cent of control [42]: 54% | kinase still bound, per cent of control [21]: 98% | kinase still bound, per cent of control [22]: 0.75% | kinase still bound, per cent of control [23]: 94% | kinase still bound, per cent of control [24]: 100% | kinase still bound, per cent of control [25]: 18% | kinase still bound, per cent of control [26]: 100% | kinase still bound, per cent of control [27]: 100% | kinase still bound, per cent of control [28]: 69% | kinase still bound, per cent of control [29]: 100% | kinase still bound, per cent of control [30]: 39% | kinase still bound, per cent of control [31]: 100% | kinase still bound, per cent of control [32]: 100% | kinase still bound, per cent of control [33]: 100% | kinase still bound, per cent of control [34]: 100% | kinase still bound, per cent of control [35]: 15% | kinase still bound, per cent of control [36]: 100% | kinase still bound, per cent of control [37]: 33% | kinase still bound, per cent of control [38]: 100% | kinase still bound, per cent of control [39]: 6.5% | kinase still bound, per cent of control [40]: 100%
